Key:
RBCs from wild-type mice = assay: Osmotic water permeability, RBCs from wild-type mice (stopped-flow); assay type: cell-based, mouse; details: 10° C., 250-mM sucrose gradient
Experimental: (§1) RBC urea and water permeabilities were assayed by stopped-flow light scattering using a Hi-Tech Sf-51 instrument (Wiltshire, UK). For measurement of urea permeability, dilutions of whole blood (human or mouse; see Example 1) in PBS (hematocrit: approximately 0.5%) were incubated with test compounds for 5 min and then subjected to a 250-mM inwardly directed gradient of urea. After an initial osmotic shrinking phase, the kinetics of increasing cell volume caused by urea influx were measured as the time-course of 90° scattered light intensity at 530 nm, with increasing cell volume resulting in reduced scattered light intensity. As a positive control, 0.7 mM phloretin was added to the RBC suspension prior to stopped-flow experiments. Measurements of water permeability were carried out similarly, with sucrose (cell-impermeant) used instead of urea to establish a 250-mM osmotic gradient. As a positive control, HgCl2 (0.3 mM) was added to the RBC suspension prior to stopped-flow measurements. Osmotic water permeability coefficients (Pf) were computed from light scattering data as described (van Hoek et al., J Biol. Chem. 267:18267-69 (1992)).
This example describes chemical knock-out of UT-B by UT-B inhibitors in RBCs and the effect on UT-B-facilitated water transport. […] Osmotic water permeability was measured by stopped-flow light scattering in RBCs from wild-type and AQP1-null mice as shown in FIG. 8A. […] AQP1-null RBCs had greater than 5-fold reduced Pf compared to wild-type RBCs.

UT-B [1] = molecular target: T1, UT-B (Homo sapiens, UniProt Q13336); assay: Stopped-flow light scattering, urea permeability of human RBCs; assay type: cell-based; parameters: a red blood cell (i.e., erythrocyte), which endogenously expresses the urea transporter UT-B; endogenous in cells; host or cells: human red blood cells (whole blood, single donor); details: for inhibition of urea transport, inhibitor only in urea-containing solution (sidedness): external exposure at time of stopped-flow, 0.1 μM ureainh-101, 0.2 μM ureainh-302; for reversibility of inhibition after washing RBCs: washed after 10 min incubation
T1 sequence (Q13336 1-389): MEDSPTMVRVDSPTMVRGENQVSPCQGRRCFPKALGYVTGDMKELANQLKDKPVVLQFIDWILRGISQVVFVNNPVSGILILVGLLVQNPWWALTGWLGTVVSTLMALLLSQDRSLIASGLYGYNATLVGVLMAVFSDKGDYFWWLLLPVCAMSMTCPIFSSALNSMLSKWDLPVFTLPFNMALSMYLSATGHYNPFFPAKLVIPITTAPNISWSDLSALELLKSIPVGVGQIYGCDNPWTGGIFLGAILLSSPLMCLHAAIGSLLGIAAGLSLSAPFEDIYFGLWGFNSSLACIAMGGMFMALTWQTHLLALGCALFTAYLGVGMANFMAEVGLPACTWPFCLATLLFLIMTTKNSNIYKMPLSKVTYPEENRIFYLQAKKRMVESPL
Experimental: as §1
After repeating the 96-well plate RBC lysis assay to confirm compound activity (see Example 2), bona fide urea transport inhibition was determined by stopped-flow light scattering from the kinetics of urea influx (RBC swelling) in response to an inwardly directed urea gradient. Rapid mixing of an RBC suspension with a hyperosmolar solution containing excess 250 mM urea produced rapid cell shrinking due to osmotic water efflux, followed by cell swelling as urea (and water) influx occurred.
To determine EC50 values for urea transport inhibition directly, RBC urea transport was measured by stopped-flow light scattering using a non-saturating concentration of extracellular urea (to avoid possible competition effects). EC50 for inhibition of RBC urea transport was determined independently by comparing stopped-flow light scattering curves to a model of cell shrinking-swelling.
For stopped-flow experiments, a 100-mM gradient of urea (for human RBCs) or N-methylurea (for mouse RBCs) was used to minimize competition effects (apparent urea and N-methylurea affinities at 23° C. are approximately 200 and approximately 100 mM, respectively) (Mayrand et al., J Gen Physiol. 81:221-37 (1983)). N-methylurea, with greater than 2-fold slower RBC permeability than urea, was used in mouse studies to better resolve overlapping water and urea transport kinetics. Dose-response data were also collected for human RBCs using a high concentration of 1 M urea to distinguish between competitive vs. non-competitive inhibitor binding.
The two coupled differential equations describing water efflux and solute influx in response to externally added urea or methylurea were numerically integrated using the forward Euler method (Δt=0.01 s) to reproduce the biphasic changes in cell volume observed experimentally. Computations that were performed using the smaller time step (Δt=0.001 s) gave similar results, confirming the adequacy of the 0.01 s time step. Water flux, Jv (in cm^3/s), across erythrocyte membranes is represented by the following equation: Jv=−Pf·S·vw·[(Ie−Ic(i))+(Ue−Uc(i))]; solute flux, Js (in mol/s), is represented by the following equation: Ps·S·(Ue−Uc(i)). Permeability coefficients (Pf and Ps) are expressed in units of cm/s, cell surface area (S) in cm^2, extracellular (e) and cellular (c) concentrations of impermeant (I) and urea/methylurea (U) solute in mol/cm^3, and vw is […]. Initial conditions were Ie=Ic(0)=2.9×10^−4 mol/cm^3, Ue=10^−4 mol/cm^3, and Uc(0)=0. […]

mouse UT-B = molecular target: T2, mouse UT-B (Mus musculus, UniProt Q8VHL0); assay: Stopped-flow light scattering, mouse RBCs (N-methylurea gradient); assay type: cell-based
T2 construct: the indicator cells are red blood cells that endogenously express the UT-B urea transporter; endogenous in cells; host or cells: mouse red blood cells (CD1 background; wild-type for A4, AQP1-null for A10)
T2 sequence (Q8VHL0 1-384): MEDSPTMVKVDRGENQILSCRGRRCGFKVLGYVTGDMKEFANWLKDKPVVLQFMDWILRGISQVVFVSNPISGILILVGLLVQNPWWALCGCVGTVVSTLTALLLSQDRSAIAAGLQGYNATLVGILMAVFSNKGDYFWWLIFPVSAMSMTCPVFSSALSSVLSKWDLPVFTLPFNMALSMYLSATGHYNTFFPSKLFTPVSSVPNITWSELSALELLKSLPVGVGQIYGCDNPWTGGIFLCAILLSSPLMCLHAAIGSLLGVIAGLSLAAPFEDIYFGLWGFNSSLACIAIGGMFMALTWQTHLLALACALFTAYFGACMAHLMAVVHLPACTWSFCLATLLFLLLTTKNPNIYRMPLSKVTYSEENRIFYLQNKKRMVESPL
Experimental: as §1, with “(1992)). […]” for “(1992)).”

UT-B [2] = molecular target: T3, UT-B (Mus musculus, UniProt Q8VHL0); assay: Osmotic water permeability, AQP1-null mouse RBCs (UT-B-facilitated water transport); assay type: cell-based; details: 10° C., 250-mM sucrose gradient
T3 construct: the indicator cells are red blood cells that endogenously express the UT-B urea transporter; endogenous in cells; host or cells: mouse red blood cells (CD1 background; wild-type for A4, AQP1-null for A10)
T3 sequence (Q8VHL0 1-384): T2 sequence (Q8VHL0 1-384)
Experimental: as §1, with “Osmotic water permeability coefficients (Pf) were computed from light scattering data as described (van Hoek et al., J Biol. Chem. 267:18267-69 (1992)).” left out
This example describes chemical knock-out of UT-B by UT-B inhibitors in RBCs and the effect on UT-B-facilitated water transport. […] Osmotic water permeability was measured by stopped-flow light scattering in RBCs from wild-type and AQP1-null mice as shown in FIG. 8A. […]

| inhibition of urea transport, inhibitor only in urea-containing solution (sidedness) (UT-B [1]) | concentration dependence of inhibition of urea permeability by externally added inhibitor (UT-B [1]; externally added, 0.05-0.2 μM) | reversibility of inhibition after washing RBCs (UT-B [1]) | inhibitory potencies against mouse UT-B (mouse UT-B) | effect on water permeability in AQP1-null RBCs (UT-B [2]) | inhibition at 0.1 µM (UT-B [1]; 10 min pre-incubation, 0.1 μM ureainh-101, 0.4 μM ureainh-302, read-out: transport inhibition after pre-incubation) [%] | SMILES | effect on water transport in RBCs from wild-type mice (RBCs from wild-type mice) |
| --- | --- | --- | --- | --- | --- | --- | --- |
| sizable effect | concentration-dependent | fully reversible inhibition | good inhibitory potencies | further inhibited water permeability | – | Cc1ccc(Nc2nnc(-c3ccc(C(N)=O)cc3)c3ccccc23)cc1 [ureainh-302] | little effect |
| did not inhibit urea transport | – | fully reversible inhibition | good inhibitory potencies | further inhibited water permeability | > 95 | NC(=O)CSc1oc(-c2ccccc2)nc1S(=O)(=O)c1ccc(Br)cc1 [ureainh-101, 2-(4-(4-bromophenylsulfonyl)-2-phenyloxazol-5-ylthio)acetamide] | little effect |

Reference: patent publication US8394788B2, “Phenylsulfoxyoxazole compound inhibitors of urea transporters” (The Regents of the University of California, priority 2006, dated 2013)
